# Assay: Light irradiation storage test of aqueous pyrroloquinoline quinone disodium salt solution in a transparent PET container, HPLC recovery
# Assay type: physicochemical
# Conditions: used alone, without combination partner
# Procedure: HPLC conditions: Shimadzu LC-2010 Column: YMC-Pack ODS-A Detection wavelength: 259 nm Mobile phase: 30 mM acetic acid-70 mM ammonium acetate Column temperature: 40° C. Light irradiation apparatus: A plant incubator CLH-301 manufactured by Tomy Seiko Co., Ltd. Light irradiation conditions: 30° C. and 20,000Lx All the contents of Volvic that is a commercially available PET bottle beverage, were removed and the container was washed with water. This transparent container was used as a storage container. 5 to 500 mg of BioPQQ was dissolved in 500 g of water, and the relationship between the concentration and the photodeterioration of BioPQQ was examined. First, a mixture of pyrroloquinoline quinone disodium salt and water was added to the storage container, shaken well, and then submitted to ultrasonication for 1 minute to dissolve the salt. The pH was 3.5. The prepared aqueous solution of pyrroloquinoline quinone disodium salt was stored under the above light irradiation conditions. The concentration of pyrroloquinoline quinone was analyzed by HPLC 5 days after the light irradiation. […] 20 mg of BioPQQ was dissolved in 500 g of water ([…]) in the same manner as described above. To this aqueous solution, 100 mg of Red No. 2 was further added (Example A1). […]
smiles,measurement,value
O=C1O[C@H]([C@@H](O)CO)C(O)=C1O [ascorbic acid],photodeterioration inhibition effect (in words),has a photodeterioration inhibition effect
